PubChem BioAssay (NCI)
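Exposure lasted 48 hours, with cells grown in 96-well plates and compounds tested at five concentrations. TGI is the concentration that stops growth completely.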

Key:
Assay in all cases: inhibition of tumour cell growth, NCI panel, 48 h
A498 renal = system: A498 renal
A549 NSCLC = system: A549 NSCLC
CCRF-CEM leukemia = system: CCRF-CEM leukemia
HCC-2998 colon = system: HCC-2998 colon
HCT-116 colon = system: HCT-116 colon
HOP-62 NSCLC = system: HOP-62 NSCLC
HT29 colon = system: HT29 colon
IGROV1 ovarian = system: IGROV1 ovarian
KM12 colon = system: KM12 colon
NCI-H226 lung = system: NCI-H226 lung
NCI-H522 lung = system: NCI-H522 lung
RPMI-8226 leukemia = system: RPMI-8226 leukemia
SF-539 CNS = system: SF-539 CNS
SK-MEL-2 melanoma = system: SK-MEL-2 melanoma
SK-OV-3 ovarian = system: SK-OV-3 ovarian
SN12C renal = system: SN12C renal
SNB-19 CNS = system: SNB-19 CNS
SNB-75 CNS = system: SNB-75 CNS
SR leukemia = system: SR leukemia
UACC-62 melanoma = system: UACC-62 melanoma

**Q.** With `COC(=O)C(Cc1ccc2c(c1)OCO2)(NC(=O)c1ccccc1)P(=O)(OC)OC` (stereo unspecified) as the compound, how does the TGI (A498 renal) read?
**A.** > 100 µM

**Q.** What about the TGI (A549 NSCLC) of the same compound?
**A.** > 100 µM

**Q.** And the TGI (CCRF-CEM leukemia)?
**A.** > 100 µM

**Q.** What about the TGI (HCC-2998 colon) of the same compound?
**A.** > 100 µM

**Q.** And the TGI (HCT-116 colon)?
**A.** > 100 µM

**Q.** And the TGI (HOP-62 NSCLC)?
**A.** > 100 µM

**Q.** And the TGI (HT29 colon)?
**A.** > 100 µM

**Q.** And the TGI (IGROV1 ovarian)?
**A.** > 100 µM

**Q.** And the TGI (KM12 colon)?
**A.** > 100 µM

**Q.** What about the TGI (NCI-H226 lung) of the same compound?
**A.** > 100 µM

**Q.** And the TGI (NCI-H522 lung)?
**A.** > 100 µM

**Q.** What about the TGI (RPMI-8226 leukemia) of the same compound?
**A.** > 100 µM

**Q.** What about the TGI (SF-539 CNS) of the same compound?
**A.** > 100 µM

**Q.** What about the TGI (SK-MEL-2 melanoma) of the same compound?
**A.** > 100 µM

**Q.** What about the TGI (SK-OV-3 ovarian) of the same compound?
**A.** > 100 µM

**Q.** What about the TGI (SN12C renal) of the same compound?
**A.** > 100 µM

**Q.** What about the TGI (SNB-19 CNS) of the same compound?
**A.** > 100 µM

**Q.** And the TGI (SNB-75 CNS)?
**A.** > 100 µM

**Q.** What about the TGI (SR leukemia) of the same compound?
**A.** > 100 µM

**Q.** What about the TGI (UACC-62 melanoma) of the same compound?
**A.** > 100 µM

**Q.** For `Nc1ccc(Oc2ccc(C3(c4ccc(Oc5ccc(N)c(O)c5)cc4)C4CC5CC(C4)CC3C5)cc2)cc1O`, which TGI (A498 renal) is on record?
**A.** 31 µM

**Q.** What about the TGI (A549 NSCLC) of the same compound?
**A.** 3.14 µM

**Q.** What about the TGI (CCRF-CEM leukemia) of the same compound?
**A.** 6.47 µM

**Q.** And the TGI (HCC-2998 colon)?
**A.** 3.01 µM

**Q.** And the TGI (HOP-62 NSCLC)?
**A.** 4.73 µM

**Q.** What about the TGI (HT29 colon) of the same compound?
**A.** 4.4 µM

**Q.** And the TGI (KM12 colon)?
**A.** 4.59 µM

**Q.** And the TGI (NCI-H226 lung)?
**A.** 3.62 µM

**Q.** And the TGI (NCI-H522 lung)?
**A.** 3.06 µM

**Q.** And the TGI (RPMI-8226 leukemia)?
**A.** 5.64 µM

**Q.** What about the TGI (SF-539 CNS) of the same compound?
**A.** 2.35 µM

**Q.** And the TGI (SK-MEL-2 melanoma)?
**A.** 3.88 µM

**Q.** What about the TGI (SK-OV-3 ovarian) of the same compound?
**A.** 7.1 µM

**Q.** And the TGI (SN12C renal)?
**A.** 3.62 µM

**Q.** What about the TGI (SNB-19 CNS) of the same compound?
**A.** 7.6 µM

**Q.** What about the TGI (SR leukemia) of the same compound?
**A.** 3.11 µM

**Q.** And the TGI (UACC-62 melanoma)?
**A.** 7.68 µM

**Q.** `CC(C)OP(=O)(OC(C)C)C(=Nc1ccc(N=C(NNc2ccc([N+](=O)[O-])cc2)P(=O)(OC(C)C)OC(C)C)cc1)NNc1ccc([N+](=O)[O-])cc1` was tested. Which TGI (A498 renal) did it give?
**A.** > 100 µM

**Q.** What about the TGI (A549 NSCLC) of the same compound?
**A.** > 100 µM

**Q.** What about the TGI (CCRF-CEM leukemia) of the same compound?
**A.** > 100 µM

**Q.** What about the TGI (HCT-116 colon) of the same compound?
**A.** > 100 µM

**Q.** What about the TGI (HOP-62 NSCLC) of the same compound?
**A.** > 100 µM

**Q.** What about the TGI (IGROV1 ovarian) of the same compound?
**A.** > 100 µM

**Q.** And the TGI (KM12 colon)?
**A.** > 100 µM

**Q.** And the TGI (NCI-H226 lung)?
**A.** > 100 µM

**Q.** What about the TGI (NCI-H522 lung) of the same compound?
**A.** > 100 µM

**Q.** What about the TGI (RPMI-8226 leukemia) of the same compound?
**A.** > 100 µM

**Q.** What about the TGI (SF-539 CNS) of the same compound?
**A.** > 100 µM

**Q.** And the TGI (SK-MEL-2 melanoma)?
**A.** > 100 µM

**Q.** What about the TGI (SN12C renal) of the same compound?
**A.** > 100 µM

**Q.** What about the TGI (SNB-19 CNS) of the same compound?
**A.** > 100 µM

**Q.** And the TGI (SNB-75 CNS)?
**A.** > 100 µM

**Q.** What about the TGI (SR leukemia) of the same compound?
**A.** > 100 µM

**Q.** What about the TGI (UACC-62 melanoma) of the same compound?
**A.** 6.7 µM

**Q.** For `CCOC(=O)/C(C#N)=c1/s/c(=C(\O)N/N=C/c2ccc(OC)cc2)c(=N)n1-c1ccccc1`, which TGI (A549 NSCLC) is on record?
**A.** > 100 µM

**Q.** What about the TGI (CCRF-CEM leukemia) of the same compound?
**A.** > 100 µM

**Q.** What about the TGI (HCC-2998 colon) of the same compound?
**A.** > 100 µM

**Q.** What about the TGI (HCT-116 colon) of the same compound?
**A.** > 100 µM

**Q.** What about the TGI (HOP-62 NSCLC) of the same compound?
**A.** > 100 µM

**Q.** And the TGI (HT29 colon)?
**A.** > 100 µM

**Q.** And the TGI (IGROV1 ovarian)?
**A.** > 100 µM

**Q.** What about the TGI (KM12 colon) of the same compound?
**A.** > 100 µM

**Q.** What about the TGI (NCI-H226 lung) of the same compound?
**A.** > 100 µM

**Q.** And the TGI (NCI-H522 lung)?
**A.** > 100 µM

**Q.** What about the TGI (RPMI-8226 leukemia) of the same compound?
**A.** > 100 µM

**Q.** And the TGI (SF-539 CNS)?
**A.** > 100 µM

**Q.** What about the TGI (SK-OV-3 ovarian) of the same compound?
**A.** > 100 µM

**Q.** And the TGI (SNB-19 CNS)?
**A.** > 100 µM

**Q.** What about the TGI (SNB-75 CNS) of the same compound?
**A.** 27.2 µM

**Q.** And the TGI (SR leukemia)?
**A.** > 100 µM

**Q.** And the TGI (UACC-62 melanoma)?
**A.** > 100 µM
